Values belong to the substance of their own block, whether it stands above or below them. Ru(bpy)2(pic) = [Ru(bpy)2(piCH2)]2+ complex, attached to the peptide through a hexyl spacer; Ahx = NCCCCCC(=O)O
What was measured:
[1] = system: mouse SP2/0 myeloma cells; experiment: Resonance Raman mapping of myeloma cells; format: cell-based
Description: (§1) Resonance Raman spectroscopy was performed on a Horiba Jobin Yvon HR800UV confocal microscope using an Argon ion Laser (458 nm or 514 nm) or a Helium-Neon (HeNe) laser (633 nm) as the exciting wavelength. Ten spectral acquisitions were accumulated and each acquisition was two seconds in length. Steady-state emission spectra were recorded on a Cary Eclipse Fluorescence spectrophotometer, and luminescence lifetimes were obtained using a Picoquant Fluotime 100 TCSPC system exciting at 470 nm and detecting at 600 nm using a narrow band pass dielectric filter. Quantum yields were measured using the comparative method described by Williams et al. In quenching studies, the luminophore/quencher concentrations were corrected for dilution.
For the fluorescence and fluorescence lifetime experiments 100 μl aliquots were used and incubated with the 3 μl of the Ru-octopeptide (1.2 mM), resulting in a final dye concentration of 3.5×10^−5 M. If only resonance Raman experiments were performed, the cells were incubated in the medium with dye for 15 minutes prior to the washing step.
The resonance Raman maps of the stained myeloma cells were analyzed using the modelling option implemented in the LabSpec software. A model with 4 components was creating, grouping together similar spectra in one component (background, where there is no dye/no cell, outer cell (membrane), cytoplasm and nucleus). […]

[2] = system: Sp2/0-Ag 14 myeloma cells; experiment: Confocal luminescence imaging, incorporation and localization in myeloma cells (DiOC6(3) counterstain); format: cell-based, mouse
Description: (§2) Sp2/0-Ag 14 myeloma cells (ATCC number CRL-1581™) were obtained from the ATCC Cell Biology Collection (United Kingdom). Cells were grown in Dulbecco's modified Eagle's medium (Sigma-Aldrich) supplemented with 10% foetal calf serum (Gibco Invitrogen) and 1% L-glutamine (Gibco Invitrogen) at 37° C. and 5% CO2. Cells were harvested after growing for 2 days. The viability was ensured by testing them in a trypan blue assay. In a usual sample less than 1% of the cells were dead. The growth medium was removed by centrifuging the cells at 2000 rpm for 2 min in an Eppendorff centrifuge, washed twice and resuspended in PBS buffer.
To identify where the Ru dye [Ru(bpy)2(PIC-arg8)]^2+ is localizing inside the cell, cells were counterstained with two commercial dyes. Sytox green (Invitrogen) which localizes inside the nucleus; and DiOC6(3) (3,3′-dihexyloxacarbocyanine iodide, Invitrogen) which selectively stains mitochondria and at higher concentration other internal membranes, such as the endoplasmatic reticulum, of living cells. Both dyes can be excited with the 458 nm line of an argon ion laser used for excitation of the [Ru(bpy)2(pic-R8)]^n+ dye, however, their fluorescence is in the green (around 500 nm), and therefore could be easily spectrally separated from the fluorescence of the Ru complex. […]
For the fluorescence and fluorescence lifetime experiments 100 μl aliquots of washed myeloma cells were resuspended in PBS buffer (pH 7.4) and incubated with the 3 μl of the Ru-octopeptide (1.2 mM), resulting in a final dye concentration of 3.5×10^−5 M.
The luminescence images of myeloma cells were recorded with a Zeiss LSM510 Meta confocal microscope, using a 63× oil immersion objective (NA 1.4). […] The luminescence from the Ru complexes was collected using a longpass filter at 560 nm. When Sytox green and/or DiOC6(3) were localised in the same cell, the luminescence from the Ru-dye was collected behind a 615 nm longpass filter, while the Sytox green and DiOC6(3) fluorescence was collected with a 465-510 nm bandpass filter in another channel, or by using the meta option of the instrument.

human blood platelets [3] = experiment: Photobleaching under continuous irradiation at 458 nm of dye-labelled human blood platelets; format: cell-based; details: identical conditions
From the text: Some of the advantages associated with the invention may include: • The dye conjugates described are long-lived and environmentally sensitive. The sensitivity of the dye conjugates can be tailored, e.g. to oxygen partial pressure, pH, water content etc., by altering the ligands and/or the metal ion of the dye conjugate. • Photobleaching: bleaching experiments, for example the data presented in FIG. 10, are a measure of the photostability of the dye conjugate under the types of continuous irradiation required for imaging. […] For example a ruthenium-polypyridyl complex covalently bound to an octa arginine peptide required approximately 20 minutes continuous irradiation for the dye to bleach to 50% of its initial intensity. […] The dye conjugates described herein provide a much greater acquisition time which is a significant advantage to the microscopist/microbiologist. • The synthetic yields for coupling of the Rupic unit to amine functionalities are high. The dye conjugates are functionalised with a single, accessible group, allowing unequivocal reaction with nucleophilic functions on peptides or proteins. […] The dye conjugates are easily synthetically modified to change colour, lifetime, and environmental sensitivity and are highly resistant to photobleaching.
FIG. 10 is a graph showing a photobleaching experiment. […]

[4] = system: Sp2/0-Ag 14 myeloma cells; experiment: Sytox green counterstain for cell viability; format: cell-based, mouse; details: over 2 hours
Description: as §2
To identify where the Ru dye [Ru(bpy)2(PIC-arg8)]^2+ is localizing inside the cell, cells were counterstained with two commercial dyes. […] Both dyes can be excited with the 458 nm line of an argon ion laser used for excitation of the [Ru(bpy)2(pic-R8)]^n+ dye, however, their fluorescence is in the green (around 500 nm), and therefore could be easily spectrally separated from the fluorescence of the Ru complex. […]
The luminescence images of myeloma cells were recorded with a Zeiss LSM510 Meta confocal microscope, using a 63× oil immersion objective (NA 1.4). […] The luminescence from the Ru complexes was collected using a longpass filter at 560 nm. […]

human blood platelets [5] = experiment: Fluorescence microscopy of human blood platelets incubated with dye conjugates; format: cell-based
Description: Human Blood Platelets were supplied by Niamh Moran and Dermot Kenny and prepared as described Moran et al.
Fluorescence microscopy was performed on human blood platelets incubated in the presence of Ru-Ahx-R5 and Ru-Ahx-R8. […] The process is largely irreversible, removing and washing cells, and resuspending in buffer results in less than 20% loss of emission intensity from the cell. The fluorescence microscopy pictures show intense, long-lived luminescence originating from the platelet; the wavelength of which (around 620 nm) can be assigned to the Ruthenium centres.

[6] = Luminescence intensity as a function of pH, excited state pKa; format: physicochemical; details: excitation at isosbestic point, luminescence intensity vs pH
Description: as §1
(§3) The pH was adjusted with H2SO4 (Sigma-Aldrich) and KOH (Sigma-Aldrich) and measured with a pH meter. UV/vis absorption spectra during the pH titration experiment were corrected for change in volume.
The luminescence wavelength and its intensity are pH dependent. While the emission maximum at pH 7 is at 608 nm, it shifts to higher wavelength with increasing and decreasing pH (λmax (pH 1.3)=623 nm; λmax (pH 11)=616 nm). When the pic ligand is in its neutral state, the luminescence is very bright (Φ=0.06), about 30% more intense than the one of [Ru(bpy)3]^2+. […]

[7] = Oxygen quenching of luminescence (Stern-Volmer); format: physicochemical
Description: Different oxygen concentrations were adjusted by streaming various O2—N2-mixtures through the solution until equilibrium was reached. The oxygen concentration was measured with an optical O2 electrode (Visiferm DO120, Hamilton). The fluorescence lifetime of the equilibrated dye solutions was measured in a closed-system flow cell.
In air saturated PBS solutions the lifetime drops down to 540 ns when the pic ligand is neutral, and even down to 350 ns, when the pic moiety is deprotonated. Stern-Volmer plots are linear up to air saturated solutions and then start levelling of. The Stern-Volmer quenching constants range actually vary very little with pH 2100 M^−1 for pH 10 to around 2900 M^−1 when the pic moiety is in its neutral state. The corresponding bimolecular rate constants vary between around […] when the pic moiety is deprotonated to […] when the pic moiety is in its neutral state, which is essentially the same within experimental error. This means that within the limited range of the cellular environment the O2 concentration within a cell can be assessed independently of pH using this dye.

[8] = pH titration, ground-state pKa (UV/vis absorption, Henderson-Hasselbalch fit); format: physicochemical
Description: ^1H NMR spectra were recorded on a Bruker Advance series 400 MHz NMR spectrometer. The NMR titration experiments were performed following a previously published protocol (Charbonnier and Penades). Mass spectra were acquired using a positive ion mode on a Bruker LC/MS Esquire. Electronic absorption spectra were measured on a Shimadzu 3500 UV-VIS/NIR spectrophotometer. Cyclic voltammetry was carried out using a CH Instruments CH602 electrochemical workstation. A conventional three-electrode cell was used, employing glassy carbon as working, Ag/AgCl as reference or Ag/AgNO3 in acetonitrile, and Pt wire as counter electrodes. Electrochemistry was conducted in water and acetonitrile respectively with 0.1 M phosphate buffer or tetrabutylammonium tetrafluoroborate (TBABF4) as supporting electrolyte under an N2 atmosphere. pH titrations were performed in the pH range 0.5-12. The pH was adjusted by adding aqueous solutions of NaOH or HClO4.
as §3
UV/vis absorption titration curves were fitted with a modified Henderson-Hasselbalch equation which was obtained using Beer-Lambert's law to express the concentration, FIG. 2(b) For fitting the fluorescence titration curve it was assumed that the average lifetime goes linear with the ratio of the two species in equilibrium at the certain pH.
At a shorter wavelength the ππ* transitions centred at the ligands are found: around 350 nm the ππ* transition at the pic ligand, and around 280 nm at the bipyridine ligands. […] The increasing absorption with increasing pH at 350 nm is plotted in FIG. 13B. Fitting this curve with a modified Henderson-Hasselbalch equation results in a pKa1 of 1.72±0.07 and pKa2 of 8.16±0.03. As expected the pH dependence of the other bands is rather minor.

[9] = system: bovine aortic epithelial (BAE) cells; experiment: Confocal luminescence imaging of bovine aortic epithelial (BAE) cells; format: cell-based; details: BAE cells in PBS buffer, 22° C., excitation 458 nm
Description: Bovine aortic endothelium cells were supplied by Dr PM Cummins and cultured as described in Colgon et al.
Here it has been used to image emission spectrum (left) and a confocal image at a excitation wavelength of 458 nm (right) of bovine aortic epithelial (BAE) cells. The dyes were incubated at 22° C. with BAE cells in PBS buffer.

[10] = pH dependence of resonance Raman peak ratios; format: physicochemical; details: ratio of peaks at 1575 and 1317 cm^-1, 458 nm excitation
Description: as §1
To evaluate the pH dependence of the resonance Raman data peak ratios were calculated with Labspec5 software. A baseline was drawn along the base of the peak and the area was calculated. Regions for the peaks were 1700 to 1400 cm^−1. The ratio of the peaks for the different protonation states […] 5 replica measurements were recorded for each pH and averaged.
As the pH changes, the pic moiety can be protonated or deprotonated, while the bpy moieties should stay mainly unaffected by changes in pH. […]

[11] = absorption at 350 nm vs pH, modified Henderson-Hasselbalch fit

Substance: [Ru(dppz)2(PicH2)]ClO4 [[Ru(dppz)2PICH2]^2+]
entry into the cell (resonance Raman imaging) ([1]; mouse SP2/0 myeloma cells, pH 7.4 PBS, cells washed): only interacted with the membrane but did not cross it

Substance: [Ru(bpy)2(PicH-R8)]^n+: ruthenium centre with two bipyridine ligands and one picH ligand; octaarginine coupled to pic carboxy end via Ahx spacer, amide linkage ({(Ru(bpy)2(picH))-Ahx}-RRRRRRRR-NH2; also: Ru(bpy)2 picH ruthenium complex attached via Ahx spacer)
incubation time after which dye localises in the nucleus [2]: > 40 min
time until penetration into the cells is complete ([2]; 3.5×10^−5 M dye): 15 to 20 min
preference for mitochondria (DiOC6(3) counterstain) ([2]; 20 mins incubation): no special preferences for mitochondria
continuous irradiation time for the dye to bleach to 50% of its initial intensity (human blood platelets [3]): approximately 20 minutes
cell viability (Sytox green exclusion) [4]: did not kill the cells
loss of emission intensity from the cell after removing, washing and resuspending in buffer (human blood platelets [5]): less than 20%
transport across the platelet membrane (human blood platelets [5]; fluorescence microscopy): transported through the cells membrane to accumulate intracellularly
excited state pKa2* [6]: 8.1±0.2
bimolecular rate constant of oxygen quenching ([7]; pic moiety deprotonated): around 3.6×10^−9 M^−1 s^−1
bimolecular rate constant of oxygen quenching ([7]; pic moiety in its neutral state): 3e-09 M⁻¹ s⁻¹
distribution of the dye inside the cell (Raman map, band at 1487 cm^−1) ([1]; myeloma cell incubated for 15 min): distributed throughout the cytoplasm, with less dye in the nucleus
pKa1 [8, 11]: 1.72±0.07
pKa2 [8, 11]: 8.16±0.03

Substance: [Ru(bpy)2(pic-KVG)]^n+: [Ru(bpy)2(piCH2)]^2+ attached through a hexyl spacer to KVGFFKR-NH2 (SEQ ID No. 20) ({Ru(bpy)2(pic)-Ahx}-KVGFFKR-NH2; also: ruthenium complex, charge n+)
localisation of the dye in the cells (luminescence image) [9]: concentrates in the membrane

pKa from ratio of resonance Raman peaks [10]: 8.5±0.2
pKa of ionisable site at the imidazole (higher) [8]: 8.5
pKa of ionisable site at the imidazole (lower) [8]: 1.6
Substance: [Ru(bpy)2(PicH2)](PF6)2 [[Ru-LH]^2+]
